According to patent US11752188B2, “Compositions and methods for nutritional supplements” (DailyColors Health Inc., priority 2020, dated 2023):
Like-named read-outs stand apart in the source and are kept apart here.

Assays:
[1] = target: T1, recombinant human CD73 (Homo sapiens, UniProt P21589); test: CD73 in vitro enzymatic assay (colorimetric 630 nm); format: biochemical; details: TABLE 89
T1 construct: purchased BPS Bioscience 71184 (enzyme); kit #72055
T1 sequence (P21589 27-549): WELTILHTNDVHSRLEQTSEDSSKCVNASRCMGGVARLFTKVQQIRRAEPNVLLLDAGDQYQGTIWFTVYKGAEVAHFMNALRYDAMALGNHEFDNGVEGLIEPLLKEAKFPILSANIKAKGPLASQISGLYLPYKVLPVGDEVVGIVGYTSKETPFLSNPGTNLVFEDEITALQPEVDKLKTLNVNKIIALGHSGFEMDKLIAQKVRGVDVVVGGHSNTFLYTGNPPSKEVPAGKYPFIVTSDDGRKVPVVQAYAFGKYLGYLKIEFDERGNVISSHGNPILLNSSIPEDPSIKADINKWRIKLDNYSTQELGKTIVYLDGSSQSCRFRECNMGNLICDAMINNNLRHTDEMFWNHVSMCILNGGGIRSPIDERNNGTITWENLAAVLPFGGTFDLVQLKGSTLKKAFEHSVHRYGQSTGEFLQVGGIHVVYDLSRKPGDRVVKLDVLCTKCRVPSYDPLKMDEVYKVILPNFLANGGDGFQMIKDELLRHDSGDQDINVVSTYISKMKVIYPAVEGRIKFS
From the text: Here, D5 is the Yellow Blend, D9 is the Purple Blend, D21 is the Green Blend, D13 is the Red Blend, and D31 is CBD. As before, the red blend included Apple Extract, Pomegranate Extract, Tomato Powder, Beet; the green blend included Olive Extract, Rosemary Extract, Green Coffee Bean Extract, Kale; the orange/yellow blend included Onion Extract, Ginger Extract, Grapefruit Extract, Carrot; and the purple/blue blend included Grape, Blueberry Extract, Currant, Elderberry.
Assay Conditions: In general, all assays points were done by following the CD39 and CD73 Inhibitor Screening Assay Kit protocol (BPS Bioscience, #79278 and 72055, respectively). The CD73 enzymatic reactions were conducted in duplicate at room temperature for 30 minutes in a 50 μl mixture containing assay buffer, […], CD73 enzymes, and the test compound. Test compounds were preincubated with the enzyme for 30 minutes. Reactions were started by addition of the substrate. The 50 μl reactions were carried out in a 96-well transparent plate. After enzymatic reactions, 100 μl of Colorimetric Detection Reagent was added to the reaction mix. After a 15 minutes incubation, absorbance was measured using a Tecan plate reader at 630 nm.
Data Analysis: Enzyme activity assays were performed in duplicates at each concentration. The Absorbance intensity data were analyzed and compared. In the absence of the compound, the intensity in each data set was defined as 100% (Ce) activity. In the absence of enzyme, the intensity in each data set was defined as 0% (C0) activity.

[2] = target: T2, recombinant human CD39 (Homo sapiens, UniProt P49961); test: CD39 in vitro enzymatic assay (ATP, colorimetric 630 nm); format: biochemical;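 further: test compound preincubated 30 min with enzyme, then 30 min reaction with ATP at room temperature, absorbance after detection reagent, 100% activity without compound, 0% without enzyme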
T2 construct: purchased BPS Bioscience 71284 (enzyme); kit #79278
T2 sequence (P49961 1-510): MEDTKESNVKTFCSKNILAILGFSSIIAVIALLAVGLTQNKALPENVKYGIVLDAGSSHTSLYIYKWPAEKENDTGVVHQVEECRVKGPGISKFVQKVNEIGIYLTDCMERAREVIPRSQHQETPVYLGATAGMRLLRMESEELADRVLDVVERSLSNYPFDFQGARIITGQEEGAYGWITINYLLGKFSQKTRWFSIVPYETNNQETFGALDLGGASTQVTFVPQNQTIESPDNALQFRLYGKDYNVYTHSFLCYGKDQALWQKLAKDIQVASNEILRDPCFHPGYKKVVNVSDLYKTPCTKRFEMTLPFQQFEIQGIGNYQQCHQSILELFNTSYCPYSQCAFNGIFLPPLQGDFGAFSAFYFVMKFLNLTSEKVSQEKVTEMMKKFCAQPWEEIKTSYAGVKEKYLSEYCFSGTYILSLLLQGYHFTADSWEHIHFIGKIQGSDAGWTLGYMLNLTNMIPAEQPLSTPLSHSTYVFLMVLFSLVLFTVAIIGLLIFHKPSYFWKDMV
Description: The CD39 enzymatic reactions were conducted in duplicate at room temperature for 30 minutes in a 50 μl mixture containing assay buffer, ATP, CD39 enzymes, and the test compound. Test compounds were preincubated with the enzyme for 30 minutes. Reactions were started by addition of the substrate. The 50 μl reactions were carried out in a 96-well transparent plate. After enzymatic reactions, 100 μl of Colorimetric Detection Reagent was added to the reaction mix. After a 15 minutes incubation, absorbance was measured using a Tecan plate reader at 630 nm.

O=c1c(O)c(-c2ccc(O)c(O)c2)oc2cc(O)cc(O)c12 [Quercetin]
Net absorbance Rep. 1 ([1]; 1 μM): 0.40
Net absorbance Rep. 2 ([1]; 1 μM): 0.36
inhibition at 1 µM ([1]; 1 μM): 13%
activity at 1 µM ([1]; 1 μM, read-out: Activity (%) Rep. 1): 92%
activity at 1 µM ([1]; 1 μM, read-out: Activity (%) Rep. 2): 82%
Net absorbance Rep. 1 ([1]; 10 μM): 0.23
Net absorbance Rep. 2 ([1]; 10 μM): 0.25
inhibition at 10 µM ([1]; 10 μM): 44%
activity at 10 µM ([1]; 10 μM, read-out: Activity (%) Rep. 1): 53%
activity at 10 µM ([1]; 10 μM, read-out: Activity (%) Rep. 2): 58%
Net absorbance Rep. 1 ([1]; 100 μM): 0.12
Net absorbance Rep. 2 ([1]; 100 μM): 0.08
inhibition at 100 µM ([1]; 100 μM): 78%
activity at 100 µM ([1]; 100 μM, read-out: Activity (%) Rep. 1): 27%
activity at 100 µM ([1]; 100 μM, read-out: Activity (%) Rep. 2): 17%

POM-1
Activity (%) Rep. 1 ([2]; 0.001 μM, TABLE 79): 79%
Activity (%) Rep. 2 ([2]; 0.001 μM, TABLE 79): 78%
CD39 Inhibition (%) ([2]; 0.001 μM, TABLE 79): 21%
Net absorbance Rep. 1 ([2]; 0.001 μM, TABLE 79): 0.42
Net absorbance Rep. 2 ([2]; 0.001 μM, TABLE 79): 0.41
Activity (%) Rep. 1 ([2]; 0.001 μM, TABLE 80): 99%
Activity (%) Rep. 2 ([2]; 0.001 μM, TABLE 80): 90%
Inhibition (%) ([2]; 0.001 μM, TABLE 80): 5%
Net absorbance Rep. 1 ([2]; 0.001 μM, TABLE 80): 0.281
Net absorbance Rep. 2 ([2]; 0.001 μM, TABLE 80): 0.254
Activity (%) Rep. 1 ([2]; 0.001 μM, TABLE 81): 96%
Activity (%) Rep. 2 ([2]; 0.001 μM, TABLE 81): 92%
Inhibition (%) ([2]; 0.001 μM, TABLE 81): 6%
Net absorbance Rep. 1 ([2]; 0.001 μM, TABLE 81): 0.51
Net absorbance Rep. 2 ([2]; 0.001 μM, TABLE 81): 0.49
Activity (%) Rep. 1 ([2]; 0.001 μM, TABLE 83): 86%
Activity (%) Rep. 2 ([2]; 0.001 μM, TABLE 83): 89%
Inhibition (%) ([2]; 0.001 μM, TABLE 83): 13%
Net absorbance Rep. 1 ([2]; 0.001 μM, TABLE 83): 0.25
Net absorbance Rep. 2 ([2]; 0.001 μM, TABLE 83): 0.26
Activity (%) Repeat 1 ([2]; 0.001 μM, TABLE 85): 85%
Activity (%) Repeat 2 ([2]; 0.001 μM, TABLE 85): 89%
Inhibition (%) ([2]; 0.001 μM, TABLE 85): 13%
Net Signal (Absorbance) Repeat 1 ([2]; 0.001 μM, TABLE 85): 0.27
Net Signal (Absorbance) Repeat 2 ([2]; 0.001 μM, TABLE 85): 0.29
Activity (%) Rep. 1 ([2]; 0.01 μM, TABLE 79): 49%
Activity (%) Rep. 2 ([2]; 0.01 μM, TABLE 79): 56%
CD39 Inhibition (%) ([2]; 0.01 μM, TABLE 79): 47%
Net absorbance Rep. 1 ([2]; 0.01 μM, TABLE 79): 0.26
Net absorbance Rep. 2 ([2]; 0.01 μM, TABLE 79): 0.30
Activity (%) Rep. 1 ([2]; 0.01 μM, TABLE 80): 54%
Activity (%) Rep. 2 ([2]; 0.01 μM, TABLE 80): 51%
Inhibition (%) ([2]; 0.01 μM, TABLE 80): 47%
Net absorbance Rep. 1 ([2]; 0.01 μM, TABLE 80): 0.154
Net absorbance Rep. 2 ([2]; 0.01 μM, TABLE 80): 0.145
Activity (%) Rep. 1 ([2]; 0.01 μM, TABLE 81): 36%
Activity (%) Rep. 2 ([2]; 0.01 μM, TABLE 81): 37%
Inhibition (%) ([2]; 0.01 μM, TABLE 81): 64%
Net absorbance Rep. 1 ([2]; 0.01 μM, TABLE 81): 0.19
Net absorbance Rep. 2 ([2]; 0.01 μM, TABLE 81): 0.20
Activity (%) Rep. 1 ([2]; 0.01 μM, TABLE 83): 67%
Activity (%) Rep. 2 ([2]; 0.01 μM, TABLE 83): 66%
Inhibition (%) ([2]; 0.01 μM, TABLE 83): 33%
Net absorbance Rep. 1 ([2]; 0.01 μM, TABLE 83): 0.20
Net absorbance Rep. 2 ([2]; 0.01 μM, TABLE 83): 0.19
Activity (%) Repeat 1 ([2]; 0.01 μM, TABLE 85): 65%
Activity (%) Repeat 2 ([2]; 0.01 μM, TABLE 85): 68%
Inhibition (%) ([2]; 0.01 μM, TABLE 85): 34%
Net Signal (Absorbance) Repeat 1 ([2]; 0.01 μM, TABLE 85): 0.21
Net Signal (Absorbance) Repeat 2 ([2]; 0.01 μM, TABLE 85): 0.22
Activity (%) Rep. 1 ([2]; 0.1 μM, TABLE 79): 14%
Activity (%) Rep. 2 ([2]; 0.1 μM, TABLE 79): 19%
CD39 Inhibition (%) ([2]; 0.1 μM, TABLE 79): 84%
Net absorbance Rep. 1 ([2]; 0.1 μM, TABLE 79): 0.08
Net absorbance Rep. 2 ([2]; 0.1 μM, TABLE 79): 0.10
Activity (%) Rep. 1 ([2]; 0.1 μM, TABLE 80): 26%
Activity (%) Rep. 2 ([2]; 0.1 μM, TABLE 80): 26%
Inhibition (%) ([2]; 0.1 μM, TABLE 80): 74%
Net absorbance Rep. 1 ([2]; 0.1 μM, TABLE 80): 0.073
Net absorbance Rep. 2 ([2]; 0.1 μM, TABLE 80): 0.073
Activity (%) Rep. 1 ([2]; 0.1 μM, TABLE 81): 16%
Activity (%) Rep. 2 ([2]; 0.1 μM, TABLE 81): 10%
Inhibition (%) ([2]; 0.1 μM, TABLE 81): 87%
Net absorbance Rep. 1 ([2]; 0.1 μM, TABLE 81): 0.08
Net absorbance Rep. 2 ([2]; 0.1 μM, TABLE 81): 0.06
Activity (%) Rep. 1 ([2]; 0.1 μM, TABLE 83): 30%
Activity (%) Rep. 2 ([2]; 0.1 μM, TABLE 83): 29%
Inhibition (%) ([2]; 0.1 μM, TABLE 83): 70%
Net absorbance Rep. 1 ([2]; 0.1 μM, TABLE 83): 0.09
Net absorbance Rep. 2 ([2]; 0.1 μM, TABLE 83): 0.09
Activity (%) Repeat 1 ([2]; 0.1 μM, TABLE 85): 39%
Activity (%) Repeat 2 ([2]; 0.1 μM, TABLE 85): 38%
Inhibition (%) ([2]; 0.1 μM, TABLE 85): 61%
Net Signal (Absorbance) Repeat 1 ([2]; 0.1 μM, TABLE 85): 0.13
Net Signal (Absorbance) Repeat 2 ([2]; 0.1 μM, TABLE 85): 0.13
